Measurements: paper PMC5785531, “Pharmacokinetic parameters explain the therapeutic activity of antimicrobial agents in a silkworm infection model” (Scientific Reports, 2018)
In brackets after ≈: the same amount, converted by molar mass.

Assays:
Type in all cases: cell-based
S. aureus MRSA4 = experiment: MIC against S. aureus MRSA4 in vitro (broth dilution); conditions: Staphylococcus aureus
Description: We synthesized 50 compounds (Fig. 2, Supplementary Table 1) using the Steglich esterification scheme[31] in the presence of a […], 1-ethyl-3-(3-dimethylaminopropyl)-carbodiimide hydrochloride (Fig. 1b). Antimicrobial activities of the compounds were examined by determining the MIC against S. aureus MRSA4 in vitro; therapeutic activities were examined using a systemic infection model of silkworms infected with S. aureus MSSA1. […]
(§1) Antimicrobial activity was assessed by determining the MIC by broth dilution assay according to our previous reports[21],[35],[36] as per the Clinical and Laboratory Standards Institute[37]. Briefly, serial dilutions of compound 5, compound 7, and positive controls were prepared in cation-adjusted Mueller-Hinton Broth (MHB, Difco, Franklin Lakes, NJ, USA), 100 µl of which was dispensed into each well of a round-bottomed 96-well plate. The final concentrations in the well ranged from 128 µg/ml to 0.0625 µg/ml. Bacteria were grown at 37 °C overnight on either Luria Bertani (tryptone 10 g/l, yeast extract 5 g/l, NaCl 10 g/l) or Tryptic Soy Broth (TSB, Difco) agar plates or sheep blood agar plates (Eiken Chemical Co. Ltd., Tokyo, Japan). Bacterial inoculum was prepared by direct suspension of the colonies in 0.9% saline, and adjusted to obtain a turbidity equivalent to a 0.5 McFarland standard using a spectrophotometer UV-1280 (Shimadzu Corp., Kyoto, Japan). The suspension was then diluted 1:20 in cation-adjusted MHB (Difco), and 10 µl of it was inoculated into each well of previously prepared 96-well plates containing compounds to obtain approximately 5 × 10^4 colony forming units/well and incubated at 37 °C for 20 h. […] Vancomycin (Wako Pure Chemicals) or norfloxacin (Sigma Aldrich, St Louis, MO, USA) were used as positive controls. Each plate contained a growth control well and a vehicle control well. The MIC was determined as the minimum concentration that inhibited the growth of the bacteria.

[1] = test system: Streptococcus agalactiae JCM5671; experiment: MIC by broth microdilution assay; conditions: MHB with 2.5% lysed horse blood, 24 h, median of three experiments
Description: as §1, with “obtain approximately 5 × 10^4 colony forming units/well and incubated at 37 °C for 20 h.” left out

[2] = test system: Streptococcus pneumoniae (clinical isolate); experiment: MIC by broth microdilution assay; conditions: MHB with 2.5% lysed horse blood, 24 h, median of three experiments
Description: as §1, with “obtain approximately 5 × 10^4 colony forming units/well and incubated at 37 °C for 20 h.” left out

[3] = test system: Streptococcus pyogenes SSI-9; experiment: MIC by broth microdilution assay; conditions: SSI9, MHB with 2.5% lysed horse blood, 24 h, median of three experiments
Description: as §1, with “obtain approximately 5 × 10^4 colony forming units/well and incubated at 37 °C for 20 h.” left out

[4] = MRSA, MRSA4 (clinical isolate), median of three experiments (Table 1)
[5] = S. aureus MRSA4 in vitro, SAR series (Fig. 2)

Structure (SMILES) | MIC (S. aureus MRSA4; [4]) [µg/mL] | MIC (S. aureus MRSA4; [5]) [µg/mL] | MIC [1] [µg/mL] | MIC [2] [µg/mL] | MIC [3] [µg/mL]
O=C(OCc1cc(Cl)cc(Cl)c1)c1ccc([N+](=O)[O-])s1 [compound 5] | 0.5 (≈ 1.51 µM) | 0.5 (≈ 1.51 µM) | > 128 | 1 (≈ 3.01 µM) | 8 (≈ 24.1 µM)
O=C(OCc1ccccc1)c1ccc([N+](=O)[O-])s1 [compound 7] | 1 (≈ 3.8 µM) | 1 (≈ 3.8 µM) | > 128 | 1 (≈ 3.8 µM) | 16 (≈ 60.8 µM)
